Measurements from patent US10779535B2, “Herbicidal compositions comprising 4-amino-3-chloro-5-fluoro-6-(4-chloro-2-fluoro-3-methoxyphenyl) pyridine-2-carboxylic acid or a derivative thereof and tembotrione and/or topramezone” (Dow AgroSciences LLC, priority 2017, dated 2020).

Legend:
Experiment in all cases: Post-emergence foliar-applied herbicidal mixtures, greenhouse visual weed control
Format in all cases: in vivo
[1] = tested on: AMAPA (Amaranthus palmeri, Palmer amaranth)
Excerpt: (§1) Seeds of the desired test plant species were planted in a potting media, Metro-mix 360, a peat based potting soil. Metro-mix consists of 35 to 45% specially processed coconutcoir pith, 10 to 20% horticultural grade vermiculite, 15 to 25% processed ash bark, 20 to 30% choice Canadian sphagnum peat moss and proprietary nutrients and other ingredients. When required to ensure good germination and healthy plants, a fungicide treatment and/or other chemical treatment was applied. The plants were grown for 8-16 days in a greenhouse with an approximate 14 h photoperiod which was maintained at about 29° C. during the day and 26° C. during the night. Nutrients (Peters Excel® 15-5-15 5-Ca 2-Mg and iron chelate) were applied in the irrigation solution as needed and water was added on a regular basis. Supplemental lighting was provided with overhead metal halide 1000-Watt lamps as necessary. The plants were sprayed when they reached the second through fourth true leaf stage.
(§2) Treatments consisted of the benzyl ester of 4-amino-3-chloro-5-fluoro-6-(4-chloro-2-fluoro-3-methoxy-phenyl)pyridine-2-carboxylic acid (II), formulated as an SC (suspension concentrate), GF-2978 containing 125.8 g ai/L of active ingredient, and various herbicidal components alone and in combination. The benzyl ester of formula (II) was applied on an active ingredient basis.
(§3) Other herbicidal components were applied on an active ingredient basis and included 4-hydroxyphenyl pyruvate dioxygenase (HPPD)-inhibiting herbicides tembotrione formulated as Laudis, an SC formulation containing 420 g ai/L of tembotrione, or topramezone formulated as Armezon, an SC formulation containing 335.8 g ai/L of topramezone. All treatments were applied with Prime Oil, (crop oil concentrate) at 1% v/v.
(§4) Treatment requirements were calculated based upon the rates being tested, the concentration of active ingredient or acid equivalent in the formulation, for a 30 ml volume based off of an application rate of 200 L/ha. Appropriate amounts of formulated product as calculated by the software package ARM8 (Gylling Data Management Inc.) were added to 60 ml glass vials and diluted with Indianapolis tap water and Prime Oil at 1% v/v. Treatments were applied with Generation III Research Track-Sprayer manufactured by DeVries Manufacturing in Hollandale, Minn., USA, located in building 306, room E1-483, at the Dow AgroSciences Global headquarters in Indianapolis, Ind. US. The track sprayer was calibrated to deliver 200 L/ha utilizing an 8003E even fan spray nozzle at 40 psi (276 kPa) at a speed of 2 mph (3.25 km/hr) and a spray height of 18 to 20 inches (46 to 50 cm) above average plant canopy height.
(§5) The treated plants and control plants were placed in a greenhouse as described above and watered by sub-irrigation to prevent wash-off of the test compounds. […], the condition of the test plants as compared with that of the untreated plants was determined visually and scored on a scale of 0 to 100 percent where 0 corresponds to no injury or growth inhibition and 100 corresponds to complete kill. The Colby method was used to determine the herbicidal effects expected from the mixtures.

[2] = tested on: IPOHE (Ipomoea hederacea (L.) Jacq., ivyleaf morningglory)
Excerpt: as §1, §2, §3, §4, §5

[3] = tested on: ECHCG (Echinochloa crusgalli (L.) Beauv., barnyardgrass)
Excerpt: as §1, §2, §3, §4, §5

[4] = tested on: AMARE (Amaranthus retroflexus, redroot pigweed)
Excerpt: as §1, §2, §3, §4
The treated plants and control plants were placed in a greenhouse as described above and watered by sub-irrigation to prevent wash-off of the test compounds. […] the untreated plants was determined visually and scored on a scale of 0 to 100 percent where 0 corresponds to no injury or growth inhibition and 100 corresponds to complete kill. The Colby method was used to determine the herbicidal effects expected from the mixtures.

[5] = Compound II 2.5 gai/ha, Tembotrione 0 gai/ha
[6] = Compound II 2.5 gai/ha, Topramezone 0 gai/ha
[7] = Compound II 5 gai/ha, Topramezone 0 gai/ha
[8] = Compound II 7.5 gai/ha, Topramezone 0 gai/ha
[9] = Compound II 15 gai/ha, Topramezone 0 gai/ha
[10] = Compound II 0 gai/ha, Tembotrione 46 gai/ha
[11] = Compound II 0 gai/ha, Topramezone 3 gai/ha
[12] = Compound II 0 gai/ha, Topramezone 6 gai/ha
[13] = Compound II 0 gai/ha, Topramezone 12 gai/ha
[14] = Compound II 0 gai/ha, Topramezone 24 gai/ha

COc1c(Cl)ccc(-c2nc(C(=O)OCc3ccccc3)c(Cl)c(N)c2F)c1F [Compound II, benzyl 4-amino-3-chloro-6-(4-chloro-2-fluoro-3-methoxyphenyl)-5-fluoropyridine-2-carboxylate]
Visual Weed Control (%) - 12 DAA AMAPA Obs [1, 5]: 75%
Visual Weed Control (%) - 12 DAA AMAPA Obs [1, 6]: 75%
Visual Weed Control (%) - 12 DAA AMAPA Obs ([1]; Compound II 5 gai/ha, Tembotrione 0 gai/ha): 73.33%
Visual Weed Control (%) - 12 DAA AMAPA Obs [1, 7]: 73.33%
Visual Weed Control (%) - 12 DAA AMAPA Obs [1, 8]: 85%
Visual Weed Control (%) - 12 DAA AMAPA Obs ([1]; Compound II 15 gai/ha, Tembotrione 0 gai/ha): 80%
Visual Weed Control (%) - 12 DAA AMAPA Obs [1, 9]: 80%
Visual Weed Control (%) - 5 DAA IPOHE Obs [2, 6]: 51.25%
Visual Weed Control (%) - 5 DAA IPOHE Obs [2, 7]: 62.5%
Visual Weed Control (%) - 5 DAA IPOHE Obs [2, 8]: 61.25%
Visual Weed Control (%) - 5 DAA IPOHE Obs [2, 9]: 55.75%
Visual Weed Control (%) - 5 DAA ECHCG Obs [3, 5]: 22.5%
Visual Weed Control (%) - 5 DAA ECHCG Obs [3, 6]: 22.5%
Visual Weed Control (%) - 5 DAA ECHCG Obs [3, 7]: 53.75%
Visual Weed Control (%) - 5 DAA ECHCG Obs [3, 8]: 55%
Visual Weed Control (%) - 5 DAA ECHCG Obs [3, 9]: 65%
Visual Weed Control (%) - 12 DAA ECHCG Obs [3, 7]: 61.25%
Visual Weed Control (%) - 12 DAA ECHCG Obs [3, 8]: 70.75%
Visual Weed Control (%) - 5 DAA AMARE Obs [4, 9]: 73%
Visual Weed Control (%) - 12 DAA AMARE Obs [4, 5]: 61.25%
Visual Weed Control (%) - 12 DAA AMARE Obs [4, 6]: 61.25%
Visual Weed Control (%) - 12 DAA AMARE Obs [4, 7]: 65.75%
Visual Weed Control (%) - 12 DAA AMARE Obs ([4]; Compound II 7.5 gai/ha, Tembotrione 0 gai/ha): 75%
Visual Weed Control (%) - 12 DAA AMARE Obs [4, 8]: 75%

CS(=O)(=O)c1ccc(C(=O)C2C(=O)CCCC2=O)c(Cl)c1COCC(F)(F)F [Tembotrione, 2-[2-chloro-4-(methylsulfonyl)-3-[(2,2,2-trifluoroethoxy)methyl]benzoyl]-1,3-cyclohexanedione]
Visual Weed Control (%) - 12 DAA AMAPA Obs ([1]; Compound II 0 gai/ha, Tembotrione 5.75 gai/ha): 44.33%
Visual Weed Control (%) - 12 DAA AMAPA Obs ([1]; Compound II 0 gai/ha, Tembotrione 11.5 gai/ha): 50%
Visual Weed Control (%) - 12 DAA AMAPA Obs ([1]; Compound II 0 gai/ha, Tembotrione 23 gai/ha): 66%
Visual Weed Control (%) - 5 DAA ECHCG Obs [3, 10]: 57.5%
Visual Weed Control (%) - 12 DAA AMARE Obs [4, 10]: 43.75%

Cc1c(C(=O)c2cnn(C)c2O)ccc(S(C)(=O)=O)c1C1=NOCC1 [Topramezone, [3-(4,5-dihydro-3-isoxazolyl)-2-methyl-4-(methylsulfonyl)phenyl](5-hydroxy-1-methyl-1H-pyrazol-4-yl)methanone]
Visual Weed Control (%) - 12 DAA AMAPA Obs [1, 11]: 86.67%
Visual Weed Control (%) - 12 DAA AMAPA Obs [1, 12]: 75%
Visual Weed Control (%) - 5 DAA IPOHE Obs [2, 11]: 6.25%
Visual Weed Control (%) - 5 DAA IPOHE Obs [2, 12]: 6.25%
Visual Weed Control (%) - 5 DAA IPOHE Obs [2, 13]: 8.75%
Visual Weed Control (%) - 5 DAA IPOHE Obs [2, 14]: 33.25%
Visual Weed Control (%) - 5 DAA ECHCG Obs [3, 11]: 0.75%
Visual Weed Control (%) - 5 DAA ECHCG Obs [3, 12]: 6.25%
Visual Weed Control (%) - 5 DAA ECHCG Obs [3, 14]: 51.25%
Visual Weed Control (%) - 12 DAA ECHCG Obs [3, 11]: 0%
Visual Weed Control (%) - 12 DAA ECHCG Obs [3, 12]: 1.25%
Visual Weed Control (%) - 12 DAA ECHCG Obs [3, 13]: 36.25%
Visual Weed Control (%) - 5 DAA AMARE Obs [4, 14]: 50.75%
Visual Weed Control (%) - 12 DAA AMARE Obs [4, 12]: 52.5%
Visual Weed Control (%) - 12 DAA AMARE Obs [4, 13]: 77.5%
